Data taken from ChEMBL document CHEMBL5131389, “PSMA-targeted small-molecule docetaxel conjugate: Synthesis and preclinical evaluation” (Eur J Med Chem, 2022).
Values after ≈ are worked out from the molar mass of the structure shown. Values joined by “and” are separate entries in the source; they are usually repeats but may differ in a detail not shown here. Equal entries are not always repeated. Active and inactive are the calls of the source. No cut-off for these calls is given here.

Legend:
CWR22R [1] = assay: Cytotoxicity against human 22Rv1 cells assessed as reduction in cell viability measured after 72 hrs by MTT assay; assay type: functional
PC-3 [2] = assay: Cytotoxicity against human PC-3 cells assessed as reduction in cell viability measured after 72 hrs by MTT assay; assay type: functional
[3] = Selectivity ratio of CC50 for cytotoxicity against human PC-3 cells to CC50 for cytotoxicity against human 22Rv1 cells
[4] = target: Glutamate carboxypeptidase 2 (Homo sapiens, UniProt Q04609); assay: Inhibition of GCPII (unknown origin)
Glutamate carboxypeptidase 2, sequence (Q04609 whole entry): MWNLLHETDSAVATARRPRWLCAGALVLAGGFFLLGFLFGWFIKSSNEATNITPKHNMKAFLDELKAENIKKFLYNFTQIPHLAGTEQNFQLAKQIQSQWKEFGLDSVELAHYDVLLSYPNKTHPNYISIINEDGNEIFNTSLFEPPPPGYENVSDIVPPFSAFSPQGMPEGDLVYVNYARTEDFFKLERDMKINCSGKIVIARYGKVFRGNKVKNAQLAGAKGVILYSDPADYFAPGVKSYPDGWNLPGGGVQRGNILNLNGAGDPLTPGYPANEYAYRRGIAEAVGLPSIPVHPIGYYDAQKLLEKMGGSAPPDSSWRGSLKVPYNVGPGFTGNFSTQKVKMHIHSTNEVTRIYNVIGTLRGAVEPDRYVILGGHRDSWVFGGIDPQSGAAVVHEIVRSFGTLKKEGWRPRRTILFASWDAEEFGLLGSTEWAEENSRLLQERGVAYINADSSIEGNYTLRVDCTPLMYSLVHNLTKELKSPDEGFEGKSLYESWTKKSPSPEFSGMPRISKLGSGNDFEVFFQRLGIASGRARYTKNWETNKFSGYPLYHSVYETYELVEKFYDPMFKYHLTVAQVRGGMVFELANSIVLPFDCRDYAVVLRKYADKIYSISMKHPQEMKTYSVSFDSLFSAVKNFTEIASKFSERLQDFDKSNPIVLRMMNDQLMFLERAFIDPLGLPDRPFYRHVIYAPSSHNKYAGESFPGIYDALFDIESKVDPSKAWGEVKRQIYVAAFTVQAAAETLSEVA

[5] = Chronic toxicity in rat assessed as increase in relative kidney weight administered intravenously as pluronic F127 formulation at 4 intervals for 21 days and observed 3 weeks post last injection; assay type: tissue-based; conditions: in vivo, iv, 2544 h, time 106 day
PC-3 [6] = assay: Induction of ROS generation in human PC-3 cells at 800 mV holding potential measured after 1 hr by patch clamp amplifier based optical inverted microscopic analysis; assay type: functional, cell-based
CWR22R [7] = assay: Effect on cell stiffness in human 22Rv1 cells assessed as increase in young's modulus at 1 nM measured after 1 hr by topography based scanning ion-conductance microscopic analysis; assay type: functional
PC-3 [8] = assay: Effect on cell stiffness in human PC-3 cells assessed as increase in young's modulus at 1 nM measured after 1 hr by topography based scanning ion-conductance microscopic analysis; assay type: functional
[9] = Chronic toxicity in rat assessed as increase in creatinine concentration at […], iv administered as pluronic F127 formulation at 4 intervals for 21 days and observed 3 weeks post last injection relative to control; assay type: organism-based; conditions: in vivo, 2544 h, time 106 day
[10] = Aqueous solubility of compound; assay type: physicochemical
CWR22R [11] = assay: Antitumor activity against human 22Rv1 cells xenografted in Balb/c nude mouse assessed as tumor growth inhibition at 10 mg/kg, ip administered daily for 5 days and measured at day 34 relative to control; assay type: functional; set-up: scale not given: the % may be the effect or the level left; conditions: time 34 day
[12] = Toxicity in Balb/c nude mouse xenografted with human 22Rv1 cells assessed as animal death at 10 mg/kg, ip measured upto 30 days; assay type: organism-based, CWR22R; conditions: in vivo, 720 h, time < 30 day
DU-145 [13] = assay: Antitumor activity against human DU-145 cells xenografted in BALB/c nude mouse assessed as tumor growth inhibition at 24.8 mg/kg, ip measured upto 30 days; assay type: functional; conditions: DU-145, 720 h, time <= 30 day, read-out: TGI
DU-145 [14] = assay: Antitumor activity against human DU-145 cells xenografted in BALB/c nude mouse assessed as reduction in tumor growth index at 24.8 mg/kg, ip measured upto 30 days (reference value: 799 +/- 121.8 %); assay type: functional; set-up: scale not given: the % may be the effect or the level left; conditions: time <= 30 day
DU-145 [15] = assay: Antitumor activity against human DU-145 cells xenografted in BALB/c nude mouse assessed as tumor growth inhibition at 12.4 mg/kg, ip measured upto 30 days; assay type: functional; conditions: DU-145, 720 h, time <= 30 day, read-out: TGI
DU-145 [16] = assay: Antitumor activity against human DU-145 cells xenografted in BALB/c nude mouse assessed as reduction in tumor growth index at 12.4 mg/kg, ip measured upto 30 days (reference value: 799 +/- 121.8 %); assay type: functional; set-up: scale not given: the % may be the effect or the level left; conditions: time <= 30 day
[17] = Toxicity in BALB/c nude mouse xenografted with human DU-145 cells assessed as animal death at 12.4 to 24.8 mg/kg, ip measured on day 8; assay type: organism-based; conditions: in vivo, dose 12.4-24.8 mg/kg, time 8 day, read-out: Activity
[18] = Acute toxicity in iv dosed ICR mouse assessed as lethal dose; assay type: organism-based; conditions: in vivo
[19] = Chronic toxicity in rat assessed as hair loss administered intravenously as pluronic F127 formulation at 4 intervals for 21 days and observed 3 weeks post last injection; conditions: in vivo, iv, 2544 h, time 106 day
[20] = Chronic toxicity in rat assessed as reduction in grooming frequency at 15.16 mg/kg, iv administered as pluronic F127 formulation at 4 intervals for 21 days and observed 3 weeks post last injection; assay type: organism-based; conditions: in vivo, 2544 h, time 106 day
[21] = Chronic toxicity in rat assessed as reduction in getting up frequency at 15.16 mg/kg, iv administered as pluronic F127 formulation at 4 intervals for 21 days and observed 3 weeks post last injection; assay type: organism-based; conditions: in vivo, 2544 h, time 106 day
[22] = Chronic toxicity in rat assessed as neurological disorder administered intravenously as pluronic F127 formulation at 4 intervals for 21 days and observed 3 weeks post last injection; conditions: in vivo, iv, 2544 h, time 106 day
[23] = Chronic toxicity in rat assessed as change in alkaline phosphatase level at […], iv administered as pluronic F127 formulation at 4 intervals for 21 days and observed 3 weeks post last injection relative to control; assay type: organism-based; conditions: in vivo, 2544 h, time 106 day
[24] = Chronic toxicity in rat assessed as change in erythrocytes in blood administered intravenously as pluronic F127 formulation at 4 intervals for 21 days and observed 3 weeks post last injection relative to control; assay type: cell-based; conditions: iv, 2544 h, time 106 day
[25] = Chronic toxicity in rat assessed as change in volume of excreted urine administered intravenously as pluronic F127 formulation at 4 intervals for 21 days and observed 3 weeks post last injection relative to control; conditions: in vivo, iv, 2544 h, time 106 day
[26] = Chronic toxicity in rat assessed as increase in relative mass of liver administered intravenously as pluronic F127 formulation at 4 intervals for 21 days and observed 3 weeks post last injection relative to control; assay type: tissue-based; conditions: in vivo, iv, 2544 h, time 106 day
[27] = Chronic toxicity in rat assessed as change in relative heart mass administered intravenously as pluronic F127 formulation at 4 intervals for 21 days and observed 3 weeks post last injection; assay type: tissue-based; conditions: in vivo, iv, 2544 h, time 106 day
[28] = Chronic toxicity in rat assessed as increase in relative lung mass administered intravenously as pluronic F127 formulation for 4 intervals of 21 days and observed 3 weeks post last injection relative to control; conditions: in vivo, iv, 2544 h, time 106 day
[29] = Chronic toxicity in rat assessed as increase in relative spleen mass administered intravenously as pluronic F127 formulation at 4 intervals for 21 days and observed 3 weeks post last injection relative to control; assay type: tissue-based; conditions: in vivo, iv, 2544 h, time 106 day
[30] = Chronic toxicity in rat assessed as increase in relative brain mass administered intravenously as pluronic F127 formulation at 4 intervals for 21 days and observed 3 weeks post last injection relative to control; assay type: tissue-based; conditions: in vivo, iv, 2544 h, time 106 day
[31] = Chronic toxicity in rat assessed as increase in relative mass of stomach administered intravenously as pluronic F127 formulation at 4 intervals for 21 days and observed 3 weeks post last injection relative to control; assay type: tissue-based; conditions: in vivo, iv, 2544 h, time 106 day
[32] = Chronic toxicity in rat assessed as increase in relative mass of pancreas administered intravenously as pluronic F127 formulation at 4 intervals for 21 days and observed 3 weeks post last injection relative to control; assay type: tissue-based; conditions: in vivo, iv, 2544 h, time 106 day
[33] = Chronic toxicity in rat assessed as decrease in relative mass of testes administered intravenously as pluronic F127 formulation at 4 intervals for 21 days and observed 3 weeks post last injection relative to control; conditions: in vivo, iv, 2544 h, time 106 day
[34] = Chronic toxicity in rat assessed as increase in relative mass of adrenal gland administered intravenously as pluronic F127 formulation at 4 intervals for 21 days and observed 3 weeks post last injection relative to control; assay type: tissue-based; conditions: in vivo, iv, 2544 h, time 106 day
[35] = Chronic toxicity in Soviet Chinchilla rabbit assessed as animal death administered intravenously as pluronic F127 formulation at 4 intervals for 21 days and observed one week post first injection; set-up: species or system Oryctolagus cuniculus; conditions: in vivo, iv, 168 h, time 7 day

CC(=O)O[C@@]12CO[C@@H]1C[C@H](O)[C@@]1(C)C(=O)[C@H](O)C3=C(C)[C@@H](OC(=O)[C@H](OC(=O)CCCc4cn(CCCNC(=O)[C@@H](Cc5ccccc5)NC(=O)[C@@H](Cc5ccccc5)NC(=O)CCC(=O)NCCCCCC(=O)N(CCCC[C@H](NC(=O)N[C@@H](CCC(=O)O)C(=O)O)C(=O)O)Cc5ccc(Cl)c(F)c5)nn4)[C@@H](NC(=O)OC(C)(C)C)c4ccccc4)C[C@@](O)([C@@H](OC(=O)c4ccccc4)[C@H]21)C3(C)C gave a CC50 (CWR22R [1]) of 29 nM, a CC50 (PC-3 [2]) of 52 nM and a Selectivity ratio [3] of 1.8.
Molecule CC(=O)O[C@@]12CO[C@@H]1C[C@H](O)[C@@]1(C)C(=O)[C@H](O)C3=C(C)[C@@H](OC(=O)[C@H](OC(=O)CCCc4cn(CCCNC(=O)[C@H](Cc5ccccc5)NC(=O)[C@H](Cc5ccccc5)NC(=O)CCC(=O)NCCCCCC(=O)N(CCCC[C@H](NC(=O)N[C@@H](CCC(=O)O)C(=O)O)C(=O)O)Cc5ccccc5)nn4)[C@@H](NC(=O)OC(C)(C)C)c4ccccc4)C[C@@](O)([C@@H](OC(=O)c4ccccc4)[C@H]21)C3(C)C (single isomer, unassigned) has a CC50 (CWR22R [1]) of 13 nM, a CC50 (PC-3 [2]) of 20 nM and a Selectivity ratio [3] of 1.5.
With [N-]=[N+]=NCCCNC(=O)[C@H](Cc1ccc(O)cc1)NC(=O)[C@H](Cc1ccccc1)NC(=O)CCC(=O)NCCCCCC(=O)N(CCCC[C@H](NC(=O)N[C@@H](CCC(=O)O)C(=O)O)C(=O)O)Cc1cccc(Cl)c1 the IC50 [4] was 9 nM.
In the case of CC(=O)O[C@@]12CO[C@@H]1C[C@H](O)[C@@]1(C)C(=O)[C@H](O)C3=C(C)[C@@H](OC(=O)[C@H](O)[C@@H](NC(=O)OC(C)(C)C)c4ccccc4)C[C@@](O)([C@@H](OC(=O)c4ccccc4)[C@H]21)C3(C)C [DOCETAXEL ANHYDROUS], the Activity [5] is reported as “Toxic”, the CC50 (CWR22R [1]) is reported as 1 nM and the CC50 (PC-3 [2]) is reported as 1 nM. The Selectivity ratio [3] was 1, the Activity (PC-3 [6]) was “Active” and the Activity (CWR22R [7]) was “Active”. The Activity (PC-3 [8]) was “Active”, the Activity [9] was “Toxic” and the solubility [10] was 3 µg/mL (≈ 3.71 µM). For the same molecule, the Activity (CWR22R [11]) was 88%, the Activity [12] was “Toxic” and the inhibition in vivo at 24.8 mg/kg (DU-145 [13]) was 73.5%. It also gave an Activity (DU-145 [14]) of 84.8%, an inhibition in vivo at 12.4 mg/kg (DU-145 [15]) of 47.1% and an Activity (DU-145 [16]) of 261.3%. For the same molecule, the mortality at 192 h [17] was 100%, the LD50 [18] was 138 mg/kg and 171 µmol/kg and the Activity [19] was “Toxic”. The Activity [20] was “Toxic”, the Activity [21] was “Toxic” and the Activity [22] was “Toxic”. For the same molecule, the Activity [23] was “Toxic”, the Activity [24] was “Non-Toxic” and the Activity [25] was “Toxic”. The Activity [26] was “Toxic”, the Activity [27] was “Non-Toxic” and the Activity [28] was “Toxic”. The Activity [29] was “Non-Toxic”, the Activity [30] was “Toxic” and the Activity [31] was “Toxic”. The Activity [32] was “Toxic”, the Activity [33] was “Non-Toxic” and the Activity [34] was “Toxic”. The Activity [35] was “Toxic”.
